Experimental data from publication PMC6277767, “Broad and Region-Specific Impacts of the Synthetic Cannabinoid CP 55,940 in Adolescent and Adult Female Mouse Brains” (Frontiers in Molecular Neuroscience, 2018).

System: CD1 female mouse brain lipidome
Experiment: Brain-region lipid levels (HPLC/MS/MS lipidomics) 2 h after single i.p. 3 mg/kg CP 55,940 vs vehicle
Assay type: in vivo
Design: N-arachidonoyl phenylalanine level, Mean / N-stearoyl tryptophan level, Mean / N-stearoyl proline level, Mean / N-stearoyl leucine level, Mean / N-stearoyl phenylalanine level, Mean / N-stearoyl serine level, Mean / N-stearoyl methionine level, Mean: unit: moles per gram
Method: The Bloomington Institutional Animal Care and Use Committee of Indiana University reviewed and approved the animal procedures. Female mice from the CD1 strain were utilized to match our study examining THC’s effects on the brain lipidome ([Leishman et al., 2018]). Mice were given a single i.p. injection of either 3 mg/kg CP or 1:1:18 cremophor:ethanol:saline vehicle (please refer to the section “3 mg/kg CP Is Relevant for Synthetic Cannabinoid Abuse and Has Stronger Effects on the Female Mouse Brain Lipidome During Adolescence” for a justification of dose and use of female mice). Three different age groups were given injections: PND 35 and PND 50 adolescents, and adult mice (PND 113). At least eight mice in each age group received CP and at least eight received vehicle. Matching the THC study time course ([Leishman et al., 2018]), mice were sacrificed via rapid decapitation 2 h after injection. Brains were immediately removed and flash-frozen in liquid nitrogen, and then stored at -80°C until dissections were performed. Brains were dissected on an ice-cold dissection plate into the following regions: STR, HIPP, CER, THAL, CTX, HYP, MID, and STEM. These abbreviations for these brain areas will be used exclusively when discussing the results generated by these specific dissections. Each dissected area was immediately placed in liquid nitrogen and then stored at -80°C until used for lipid extraction.
Tissue extracts were performed as previously described ([Bradshaw et al., 2006]; [Stuart et al., 2013]; [Raboune et al., 2014]; [Leishman et al., 2016a],[b], [2017], [2018]). First, samples were shock frozen in liquid nitrogen, weighed, and transferred to a centrifuge tube. The mass of the largest sample was multiplied by 50 to determine how many milliliters of HPLC-grade methanol (Fisher, Fair Lawn, NJ, United States) to add. Then, samples were spiked with 500 pmol deuterium-labeled NAGly (d8NAGly; Cayman Chemical, Ann Arbor, MI, United States). Samples were placed on ice in darkness for 2 h then individually homogenized and centrifuged at 19,000 × g for 20 min at 20°C. Supernatants were diluted with HPLC water (purified in house) to make a solution of 75% water, 25% supernatant. Lipids were partially purified on C18 solid phase extraction columns (Agilent, Palo Alto, CA, United States). A series of four elutions with 1.5 mL of 60%, 75%, 85%, and 100% methanol were collected ([Stuart et al., 2013]; [Leishman et al., 2016a],[b], [2018]).
As previously described ([Bradshaw et al., 2006]; [Tan et al., 2006]; [Smoum et al., 2010]; [Stuart et al., 2013]; [Tortoriello et al., 2013]; [Raboune et al., 2014]; [Leishman et al., 2016a],[b], [2017], [2018]), samples were analyzed using an Applied Biosystems API 3000 triple quadrupole mass spectrometer with electrospray ionization (Foster City, CA, United States). Using an Agilent XDB-C18 reversed phase analytical column and optimized mobile phase gradients, 20 μL from each elution were chromatographed. Two Shimadzu 10ADvp pumps (Columbia, MD, United States) provided the pressure for gradient elution. Mobile phase A: 20% methanol, 80% water (v/v) and 1 mM ammonium acetate (Sigma, St. Louis, MO, United States). Mobile phase B: 100% methanol, 1 mM ammonium acetate. Every method run began with 0% mobile phase B, reached 100% mobile phase B flowing at 0.2 mL/min, and gradually returned to 0% mobile phase B.
This screening library will be referred to as the lipidome when discussing data from this study. HPLC/MS/MS data were analyzed using Analyst software (Applied Biosystems) ([Bradshaw et al., 2006]; [Tan et al., 2006]; [Stuart et al., 2013]; [Tortoriello et al., 2013]; [Raboune et al., 2014]; [Leishman et al., 2016a],[b], [2017], [2018]). Chromatograms (Supplementary Figure 3) were generated by determining the retention time of analytes from the analytical column with a [M-1] or [M+1] parent peak and a fragmentation peak corresponding to the programmed values. […]

[1] = cerebellum, PND 35, 3 mg/kg CP 55,940
[2] = cerebellum, PND35 WT female mice, 3mg/kg CP 55,940
[3] = cortex, PND 50, 3 mg/kg CP 55,940

CCCCCCC(C)(C)c1ccc([C@@H]2C[C@H](O)CC[C@H]2CCCO)c(O)c1 [CP 55,940]
N-oleoyl phenylalanine: Magnitude (x Veh level) [1]: 1.14 x Veh level
N-palmitoyl leucine: Direction (relative to Veh) [1]: ↑
N-palmitoyl leucine: Magnitude (x Veh level) [1]: 1.52 x Veh level
N-palmitoyl phenylalanine: Direction (relative to Veh) [1]: ↑
N-palmitoyl phenylalanine: Magnitude (x Veh level) [1]: 1.43 x Veh level
N-palmitoyl proline: Direction (relative to Veh) [1]: ↓
N-palmitoyl proline: Magnitude (x Veh level) [1]: 0.87 x Veh level
N-palmitoyl serine: Direction (relative to Veh) [1]: ↓
N-palmitoyl serine: Magnitude (x Veh level) [1]: 0.81 x Veh level
N-palmitoyl tyrosine: Direction (relative to Veh) [1]: ↑
N-palmitoyl tyrosine: Magnitude (x Veh level) [1]: 1.19 x Veh level
N-palmitoyl valine: Direction (relative to Veh) [1]: ↑
N-palmitoyl valine: Magnitude (x Veh level) [1]: 1.70 x Veh level
2-arachidonoyl glycerol level, Mean [2]: 2.68E-10
2-linoleoyl glycerol level, Mean [2]: 1.01E-10
2-oleoyl glycerol level, Mean [2]: 7.55E-10
2-palmitoyl glycerol level, Mean [2]: 3.01E-10
6-ketoPGF1α level, Mean [2]: 8.74E-12
11-OH-THC level, Mean [2]: BDL
11-nor-9-carboxyTHC level, Mean [2]: BDL
Arachidonic acid level, Mean [2]: 1.26E-09
Cannabidiol level, Mean [2]: BDL
Linoleic acid level, Mean [2]: 4.27E-10
N- stearoyl valine level, Mean [2]: PISSR
N-arachidonoyl GABA level, Mean [2]: 9.02E-12
N-arachidonoyl alanine level, Mean [2]: 5.29E-12
N-arachidonoyl dopamine level, Mean [2]: BDL
N-arachidonoyl ethanolamine level, Mean [2]: 1.17E-11
N-arachidonoyl glycine level, Mean [2]: 2.55E-11
N-arachidonoyl methionine level, Mean [2]: 8.56E-13
N-arachidonoyl phenylalanine level, Mean [2]: 1.22E-12
N-arachidonoyl proline level, Mean [2]: BDL
N-arachidonoyl serine level, Mean [2]: 5.34E-12
N-arachidonoyl taurine level, Mean [2]: 7.17E-11
N-arachidonoyl tryptophan level, Mean [2]: PISSR
N-arachidonoyl tyrosine level, Mean [2]: 8.32E-13
N-docosahexaenoyl GABA level, Mean [2]: 2.27E-12
N-docosahexaenoyl alanine level, Mean [2]: 3.11E-12
N-docosahexaenoyl ethanolamine level, Mean [2]: 2.05E-11
N-docosahexaenoyl glycine level, Mean [2]: 1.34E-11
N-docosahexaenoyl leucine level, Mean [2]: 7.43E-13
N-docosahexaenoyl methionine level, Mean [2]: 5.43E-13
N-docosahexaenoyl phenylalanine level, Mean [2]: 1.05E-12
N-docosahexaenoyl proline level, Mean [2]: BDL
N-docosahexaenoyl serine level, Mean [2]: 2.79E-11
N-docosahexaenoyl tryptophan level, Mean [2]: PISSR
N-docosahexaenoyl tyrosine level, Mean [2]: 1.57E-12
N-docosahexaenoyl valine level, Mean [2]: BDL
N-linoleoyl GABA level, Mean [2]: 7.16E-13
N-linoleoyl alanine level, Mean [2]: 1.26E-12
N-linoleoyl ethanolamine level, Mean [2]: 2.95E-11
N-linoleoyl glycine level, Mean [2]: 3.27E-12
N-linoleoyl leucine level, Mean [2]: 3.65E-13
N-linoleoyl methionine level, Mean [2]: PISSR
N-linoleoyl phenylalanine level, Mean [2]: 2.56E-13
N-linoleoyl proline level, Mean [2]: BDL
N-linoleoyl serine level, Mean [2]: 4.55E-11
N-linoleoyl tryptophan level, Mean [2]: PISSR
N-linoleoyl tyrosine level, Mean [2]: PISSR
N-linoleoyl valine level, Mean [2]: BDL
N-nervonoyl valine level, Mean [2]: BDL
N-oleoyl GABA level, Mean [2]: 3.82E-12
N-oleoyl alanine level, Mean [2]: 6.55E-12
N-oleoyl dopamine level, Mean [2]: BDL
N-oleoyl ethanolamine level, Mean [2]: 7.98E-11
N-oleoyl glycine level, Mean [2]: 1.52E-11
N-oleoyl leucine level, Mean [2]: 1.49E-12
N-oleoyl methionine level, Mean [2]: 1.2E-12
N-oleoyl phenylalanine level, Mean [2]: 1.43E-12
N-oleoyl proline level, Mean [2]: 3.42E-13
N-oleoyl serine level, Mean [2]: 2.53E-10
N-oleoyl tryptophan level, Mean [2]: 1.48E-13
N-oleoyl tyrosine level, Mean [2]: 7.24E-13
N-oleoyl valine level, Mean [2]: PISSR
N-palmitoyl GABA level, Mean [2]: 7.17E-12
N-palmitoyl alanine level, Mean [2]: 7.87E-12
N-palmitoyl ethanolamine level, Mean [2]: 3.88E-11
N-palmitoyl glycine level, Mean [2]: 2.65E-11
N-palmitoyl leucine level, Mean [2]: 2.75E-12
N-palmitoyl methionine level, Mean [2]: 1.86E-12
N-palmitoyl phenylalanine level, Mean [2]: 2.82E-12
N-palmitoyl proline level, Mean [2]: 7E-13
N-palmitoyl serine level, Mean [2]: 5.23E-11
N-palmitoyl tryptophan level, Mean [2]: 3.12E-13
N-palmitoyl tyrosine level, Mean [2]: 1.58E-12
N-palmitoyl valine level, Mean [2]: 1.73E-13
N-stearoyl GABA level, Mean [2]: 5.88E-12
N-stearoyl alanine level, Mean [2]: 1.31E-11
N-stearoyl ethanolamine level, Mean [2]: 1.11E-11
N-stearoyl glycine level, Mean [2]: 1.37E-11
N-stearoyl leucine level, Mean [2]: 9.56E-13
N-stearoyl methionine level, Mean [2]: 1.59E-12
N-stearoyl phenylalanine level, Mean [2]: 1.92E-12
N-stearoyl proline level, Mean [2]: 3.97E-13
N-stearoyl serine level, Mean [2]: 2.93E-11
N-stearoyl tryptophan level, Mean [2]: 6.79E-13
N-stearoyl tyrosine level, Mean [2]: 8.44E-14
Oleic acid level, Mean [2]: 1.03E-09
PGE2 level, Mean [2]: 4.01E-10
PhosphoLEA level, Mean [2]: 1.04E-11
THC level, Mean [2]: BDL
2-linoleoyl glycerol Direction (relative to Veh) [3]: ↓
2-oleoyl glycerol, Direction (relative to Veh) [3]: ↓
